Experimental data taken from PMC11995724, “Antibiotic target discovery by integrated phenotypic and activity-based profiling of electrophilic fragments” (Cell chemical biology, 2025).
Structures can show the parent of a compound that is named as a salt.

Assay: in vitro
Settings: human, hek293t cells

Row | Structure (SMILES) | viability at 48 h, 25 µM
1 | CC(Cl)C(=O)N1CCc2c(nnn2C)C1 (stereo not drawn) [7-G22, 2-chloro-1-{1-methyl-1H,4H,5H,6H,7H-[1,2,3]triazolo[4,5-c]pyridin-5-yl}propan-1-one] | 80.5%
2 | O=C(CCl)NCC1CN(Cc2ccccc2)CC12CCC2 (stereo not drawn) [7-H03, N-({6-benzyl-6-azaspiro[3.4]octan-8-yl}methyl)-2-chloroacetamide hydrochloride] | 0.629%
3 | O=C(CCl)NC1CCN(Cc2cscn2)CC1 [7-H04, 2-chloro-N-{1-[(1,3-thiazol-4-yl)methyl]piperidin-4-yl}acetamide hydrochloride] | 0.789%
4 | CC(Cl)C(=O)NC1CCc2cnn(C(C)C)c2C1 (stereo not drawn) [7-H05, 2-chloro-N-[1-(propan-2-yl)-4,5,6,7-tetrahydro-1H-indazol-6-yl]propanamide] | 107%
5 | O=C(CCl)NC1CCS(=O)(=O)c2ccc(F)cc21 (stereo not drawn) [7-H06, 2-chloro-N-(6-fluoro-1,1-dioxo-3,4-dihydro-2H-1lambda6-benzothiopyran-4-yl)acetamide] | 1.04%
6 | COc1cc(CC2CN(C(=O)C(C)Cl)C2)cc(OC)c1 (stereo not drawn) [7-H07, 2-chloro-1-{3-[(3,5-dimethoxyphenyl)methyl]azetidin-1-yl}propan-1-one] | 97.3%
7 | O=C(CCl)NCc1ccnn1C1CCCC1 [7-H08, 2-chloro-N-[(1-cyclopentyl-1H-pyrazol-5-yl)methyl]acetamide] | 0.996%
8 | Cc1c(C(=O)N2CCN(C(=O)C(C)Cl)CC2)sc2ccccc12 (stereo not drawn) [7-H09, 2-chloro-1-[4-(3-methyl-1-benzothiophene-2-carbonyl)piperazin-1-yl]propan-1-one] | 88.8%
9 | O=C(CCl)NCc1ccn(Cc2ccccc2)n1 [7-H10, N-[(1-benzyl-1H-pyrazol-3-yl)methyl]-2-chloroacetamide] | 0.654%
10 | CC(Cl)C(=O)N1CCCC1c1nc(-c2ccccc2)c(C(C)C)o1 (stereo not drawn) [7-H11, 2-chloro-1-{2-[4-phenyl-5-(propan-2-yl)-1,3-oxazol-2-yl]pyrrolidin-1-yl}propan-1-one] | 79.2%
11 | CC(c1ccc(S(N)(=O)=O)cc1)N(C)C(=O)CCl (stereo not drawn) [7-H12, 2-chloro-N-methyl-N-[1-(4-sulfamoylphenyl)ethyl]acetamide] | 0.618%
12 | CC(Cl)C(=O)NC(CC1CCCCC1)c1ncccn1 (stereo not drawn) [7-H13, 2-chloro-N-[2-cyclohexyl-1-(pyrimidin-2-yl)ethyl]propanamide] | 91.2%
13 | Cc1ccc(N2CCCC2CNC(=O)CCl)cc1 (stereo not drawn) [7-H14, 2-chloro-N-{[1-(4-methylphenyl)pyrrolidin-2-yl]methyl}acetamide] | 4.76%
14 | CC(Cl)C(=O)N(C)CCn1c(=O)oc2ccccc21 (stereo not drawn) [7-H15, 2-chloro-N-methyl-N-[2-(2-oxo-2,3-dihydro-1,3-benzoxazol-3-yl)ethyl]propanamide] | 102%
15 | O=C(CCl)NCCc1c[nH]c2c(F)c(F)c(F)cc12 [7-H16, 2-chloro-N-[2-(5,6,7-trifluoro-1H-indol-3-yl)ethyl]acetamide] | 1.21%
16 | CC(Cl)C(=O)N1CCC(n2nnc3c2CCCC3)CC1 (stereo not drawn) [7-H17, 2-chloro-1-[4-(4,5,6,7-tetrahydro-1H-1,2,3-benzotriazol-1-yl)piperidin-1-yl]propan-1-one] | 90%
17 | COc1cc(CN(C(=O)CCl)C2CC2)ccc1O [7-H18, 2-chloro-N-cyclopropyl-N-[(4-hydroxy-3-methoxyphenyl)methyl]acetamide] | 0.647%
18 | CC(Cl)C(=O)NCCC1(CO)CC1 (stereo not drawn) [7-H19, 2-chloro-N-{2-[1-(hydroxymethyl)cyclopropyl]ethyl}propanamide] | 90.1%
19 | CCN(Cc1ccc(C(F)(F)F)cc1)C(=O)CCl [7-H20, 2-chloro-N-ethyl-N-{[4-(trifluoromethyl)phenyl]methyl}acetamide] | 0.708%
20 | Cc1cc(CC(C)NC(=O)C(C)Cl)n(-c2ccccc2)n1 (stereo not drawn) [7-H21, 2-chloro-N-[1-(3-methyl-1-phenyl-1H-pyrazol-5-yl)propan-2-yl]propanamide] | 80.1%
21 | COc1cc(C(C)NC(=O)CCl)sn1 (stereo not drawn) [7-H22, 2-chloro-N-[1-(3-methoxy-1,2-thiazol-5-yl)ethyl]acetamide] | 0.822%
22 | CC(Cl)C(=O)N1CC(OCc2cccc3ccccc23)C1 (stereo not drawn) [7-I03, 2-chloro-1-{3-[(naphthalen-1-yl)methoxy]azetidin-1-yl}propan-1-one] | 96.3%
23 | CC(Cl)C(=O)N1CC(Cc2cccs2)C1 (stereo not drawn) [7-I04, 2-chloro-1-{3-[(thiophen-2-yl)methyl]azetidin-1-yl}propan-1-one] | 88.8%
24 | CC(Cl)C(=O)NCC1=CCCOC1 (stereo not drawn) [7-I05, 2-chloro-N-[(5,6-dihydro-2H-pyran-3-yl)methyl]propanamide] | 89.9%
25 | COCc1noc(CN2CCN(C(=O)C(C)Cl)CC2)n1 (stereo not drawn) [7-I06, 2-chloro-1-(4-{[3-(methoxymethyl)-1,2,4-oxadiazol-5-yl]methyl}piperazin-1-yl)propan-1-one] | 88.7%
26 | CCOC(=O)c1c2c(nn1C)CCN(C(=O)C(C)Cl)C2 (stereo not drawn) [7-I07, ethyl 5-(2-chloropropanoyl)-2-methyl-2H,4H,5H,6H,7H-pyrazolo[4,3-c]pyridine-3-carboxylate] | 92.6%

Row | Structure (SMILES) | viability at 48 h, 25 µM
27 | CC(Cl)C(=O)N1CCN(C)C(c2nc(C3CC3)no2)C1 (stereo not drawn) [7-I08, 2-chloro-1-[3-(3-cyclopropyl-1,2,4-oxadiazol-5-yl)-4-methylpiperazin-1-yl]propan-1-one] | 84.4%
28 | CC(Cl)C(=O)N1CCCC1c1nc(-c2ccccc2)n[nH]1 (stereo not drawn) [7-I09, 2-chloro-1-[2-(3-phenyl-1H-1,2,4-triazol-5-yl)pyrrolidin-1-yl]propan-1-one] | 86.8%
29 | Cc1ccnc(-c2n[nH]c(C(C)NC(=O)C(C)Cl)n2)c1 (stereo not drawn) [7-I10, 2-chloro-N-{1-[3-(4-methylpyridin-2-yl)-1H-1,2,4-triazol-5-yl]ethyl}propanamide] | 71.1%
30 | COC1CCN(c2ccc(F)cc2CN(C)C(=O)C(C)Cl)CC1 (stereo not drawn) [7-I11, 2-chloro-N-{[5-fluoro-2-(4-methoxypiperidin-1-yl)phenyl]methyl}-N-methylpropanamide] | 94.9%
31 | CC(Cl)C(=O)N1CCN(c2nnnn2-c2ccccc2)CC1 (stereo not drawn) [7-I12, 2-chloro-1-[4-(1-phenyl-1H-1,2,3,4-tetrazol-5-yl)piperazin-1-yl]propan-1-one] | 74.2%
32 | CC(Cl)C(=O)NCc1ccon1 (stereo not drawn) [7-I13, 2-chloro-N-[(1,2-oxazol-3-yl)methyl]propanamide] | 94.7%
33 | CC(Cl)C(=O)NCc1noc2ccccc12 (stereo not drawn) [7-I14, N-[(1,2-benzoxazol-3-yl)methyl]-2-chloropropanamide] | 77.8%
34 | CC(Cl)C(=O)NC1CCN(S(C)(=O)=O)C1 (stereo not drawn) [7-I15, 2-chloro-N-(1-methanesulfonylpyrrolidin-3-yl)propanamide] | 94.9%
35 | CC(=O)N1CCC(NC(=O)C(C)Cl)c2ccc(F)cc2C1 (stereo not drawn) [7-I16, N-(2-acetyl-8-fluoro-2,3,4,5-tetrahydro-1H-2-benzazepin-5-yl)-2-chloropropanamide] | 92.3%
36 | CC(Cl)C(=O)NCc1ccn(CC(F)F)n1 (stereo not drawn) [7-I17, 2-chloro-N-{[1-(2,2-difluoroethyl)-1H-pyrazol-3-yl]methyl}propanamide] | 88.7%
37 | CC(Cl)C(=O)N1CCC(Oc2cnc3ccccc3n2)CC1 (stereo not drawn) [7-I18, 2-chloro-1-[4-(quinoxalin-2-yloxy)piperidin-1-yl]propan-1-one] | 68.7%
38 | CC(Cl)C(=O)N1CCc2ncccc2C1 (stereo not drawn) [7-I19, 2-chloro-1-(5,6,7,8-tetrahydro-1,6-naphthyridin-6-yl)propan-1-one] | 98.1%
39 | CC(Cl)C(=O)Nc1ccc(C(=O)N(C)C2CCCN(C)C2)cc1 (stereo not drawn) [7-I20, 4-(2-chloropropanamido)-N-methyl-N-(1-methylpiperidin-3-yl)benzamide] | 76.4%
40 | CC(Cl)C(=O)NCCc1ccnn1C (stereo not drawn) [7-I21, 2-chloro-N-[2-(1-methyl-1H-pyrazol-5-yl)ethyl]propanamide] | 92.3%
41 | CC(Cl)C(=O)N1CCN(Cc2ccnn2C)CC1 (stereo not drawn) [7-I22, 2-chloro-1-{4-[(1-methyl-1H-pyrazol-5-yl)methyl]piperazin-1-yl}propan-1-one] | 99.9%
42 | Cc1csc(C2(NC(=O)CCl)CCOCC2)n1 [7-J03, 2-chloro-N-[4-(4-methyl-1,3-thiazol-2-yl)oxan-4-yl]acetamide] | 0.732%
43 | Cc1ccccc1C(NC(=O)CCl)c1ccccc1C [7-J04, N-[bis(2-methylphenyl)methyl]-2-chloroacetamide] | 0.589%
44 | CC(Cl)C(=O)NCC(c1ccc(Cl)cc1)n1cccn1 (stereo not drawn) [7-J05, 2-chloro-N-[2-(4-chlorophenyl)-2-(1H-pyrazol-1-yl)ethyl]propanamide] | 100%
45 | O=C(CCl)NC1CN(c2ccc(C(F)(F)F)cc2)C1 [7-J06, 2-chloro-N-{1-[4-(trifluoromethyl)phenyl]azetidin-3-yl}acetamide] | 0.892%
46 | CC(Cl)C(=O)N1CCN(CC(F)(F)C(F)F)CC1 (stereo not drawn) [7-J07, 2-chloro-1-[4-(2,2,3,3-tetrafluoropropyl)piperazin-1-yl]propan-1-one] | 96.1%
47 | O=C(CCl)NC1(c2nc(-c3ccccc3)c[nH]2)CCCC1 [7-J08, 2-chloro-N-[1-(4-phenyl-1H-imidazol-2-yl)cyclopentyl]acetamide hydrochloride] | 0.673%
48 | CC(Cl)C(=O)NCCCc1c[nH]c2ccc(F)cc12 (stereo not drawn) [7-J09, 2-chloro-N-[3-(5-fluoro-1H-indol-3-yl)propyl]propanamide] | 96%
49 | O=C(CCl)NC1CCCN(Cc2ccccc2)C1=O (stereo not drawn) [7-J10, N-(1-benzyl-2-oxopiperidin-3-yl)-2-chloroacetamide] | 55.1%
50 | CC(Cl)C(=O)NCC1CCN(C)c2ccccc21 (stereo not drawn) [7-J11, 2-chloro-N-[(1-methyl-1,2,3,4-tetrahydroquinolin-4-yl)methyl]propanamide] | 79.9%
51 | CN(C)C(=O)C(CNC(=O)CCl)c1ccccc1 (stereo not drawn) [7-J12, 3-(2-chloroacetamido)-N,N-dimethyl-2-phenylpropanamide] | 1.26%
